US9133158B2, “Bicyclic dihydroisoquinoline-1-one derivatives” (Hoffmann-La Roche Inc., priority 2011, dated 2015)

What was measured:
human CYP11B1 = molecular target: T1, human CYP11B1 (Homo sapiens, UniProt P15538); assay: G-402 cellular enzyme assay, human CYP11B1 (cortisol release, HTRF); format: cell-based; conditions: G-402 cells, 1 μM Deoxycortisol
T1 construct: expressed in transfected cells
T1 sequence (P15538 25-503): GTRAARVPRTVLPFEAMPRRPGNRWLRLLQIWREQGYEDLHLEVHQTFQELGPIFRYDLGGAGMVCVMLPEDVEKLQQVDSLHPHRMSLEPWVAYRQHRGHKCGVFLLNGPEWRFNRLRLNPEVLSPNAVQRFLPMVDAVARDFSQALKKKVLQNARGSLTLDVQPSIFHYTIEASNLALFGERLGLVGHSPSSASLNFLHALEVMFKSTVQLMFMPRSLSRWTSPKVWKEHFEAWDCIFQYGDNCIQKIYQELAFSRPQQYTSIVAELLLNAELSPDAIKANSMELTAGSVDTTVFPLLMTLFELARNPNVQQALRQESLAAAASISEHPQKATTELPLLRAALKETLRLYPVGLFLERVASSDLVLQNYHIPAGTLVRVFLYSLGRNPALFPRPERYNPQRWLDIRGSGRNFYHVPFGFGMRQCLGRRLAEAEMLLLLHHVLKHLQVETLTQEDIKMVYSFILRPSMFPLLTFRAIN
Description: (§1) Herein we identified the use of the G-402 cell line as a host cell to ectopically express (transiently or stably) enzymes of the CYP11 family. Specifically we developed stable G-402 cells expressing ectopically human CYP11B1, human CYP11B2, human CYP11A1, cynmolgus CYP11B1 or cynomolgus CYP11B2 enzyme activity. Importantly the identified cell line G-402 expresses co-factors (adrenodoxin and adrenodoxin reductase) important for the activity of the CYP11 family and no relevant enzyme activity of the CYP11 family (in comparison to H295R cells) was detected in these cells. Therefore the G-402 cell line is uniquely suited as a host cell for the ectopic expression of enzymes from the CYP11 family.
(§2) G-402 cells can be obtained from ATCC(CRL-1440) and were originally derived from a renal leiomyoblastoma.
(§3) The expression plasmids contain the ORF for either human/cyno CYP11B1 or CYP11B2 under the control of a suitable promoter (CMV-promoter) and a suitable resistance marker (neomycin). Using standard techniques the expression plasmid is transfected into G-402 cells and these cells are then selected for expressing the given resistance markers. Individual cell-clones are then selected and assessed for displaying the desired enzymatic activity using 11-Deoxycorticosterone (Cyp11B2) or 11-Deoxycortisol (Cyp11B1) as a substrate.
(§4) G-402 cells expressing CYP11 constructs were established as described above and maintained in McCoy's 5a Medium Modified, ATCC Catalog No. 30-2007 containing 10% FCS and 400 μg/ml G418 (Geneticin) at 37° C. under an atmosphere of 5% CO2/95% air.
(§5) Cellular enzyme assays were performed in DMEM/F12 medium containing 2.5% charcoal treated FCS and appropriate concentration of substrate (0.3-10 uM 11-Deoxycorticosterone, 11-Deoxycortisol or Corticosterone). For assaying enzymatic activity, cells were plated onto 96 well plates and incubated for 16 h. An aliquot of the supernatant is then transferred and analyzed for the concentration of the expected product (Aldosterone for CYP11B2; Cortisol for CYP11B1). The concentrations of these steroids can be determined using HTRF assays from CisBio analyzing either Aldosterone or Cortisol.
(§6) Inhibition of the release of produced steroids can be used as a measure of the respective enzyme inhibition by test compounds added during the cellular enzyme assay. The dose dependent inhibition of enzymatic activity by a compound is calculated by means of plotting added inhibitor concentrations (x-axes) vs. measured steroid/product level (y-axes). The inhibition is then calculated by fitting the following 4-parameter sigmoidal function (Morgan-Mercer-Flodin (MMF) model) to the raw data points using the least squares method:
(§7) [formula] wherein, A is the maximum y value, B is the EC50 factor determined using XLFit, C is the minimum y value and D is the slope value.
(§8) EC50 values for compounds claimed herein were tested with the G402-based assay system described. Cyp11B2 enzyme activity was tested in presence of 1 μM Deoxycorticosterone and variable amounts of inhibitors; Cyp11B1 enzyme activity was tested in presence of 1 μM Deoxycortisol and variable amounts of inhibitors.

human CYP11B2 = molecular target: T2, human CYP11B2 (Homo sapiens, UniProt P19099); assay: G-402 cellular enzyme assay, human CYP11B2 (aldosterone release, HTRF); format: cell-based; conditions: G-402 cells, 1 μM Deoxycorticosterone
T2 construct: expressed in transfected cells
T2 sequence (P19099 25-503): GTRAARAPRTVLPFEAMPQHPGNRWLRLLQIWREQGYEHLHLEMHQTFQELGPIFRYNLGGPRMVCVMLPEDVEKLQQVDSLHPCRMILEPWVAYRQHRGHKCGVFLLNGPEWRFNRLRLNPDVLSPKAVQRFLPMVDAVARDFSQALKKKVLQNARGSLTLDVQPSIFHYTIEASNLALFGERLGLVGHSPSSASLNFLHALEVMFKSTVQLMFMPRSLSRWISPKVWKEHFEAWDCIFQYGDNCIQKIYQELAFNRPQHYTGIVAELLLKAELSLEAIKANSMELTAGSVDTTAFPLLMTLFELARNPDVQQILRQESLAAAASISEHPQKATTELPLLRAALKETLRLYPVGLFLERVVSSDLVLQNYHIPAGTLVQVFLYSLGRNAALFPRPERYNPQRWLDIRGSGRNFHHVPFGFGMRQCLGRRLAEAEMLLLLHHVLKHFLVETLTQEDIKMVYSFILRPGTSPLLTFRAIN
Description: as §1, §2, §3, §4, §5, §6, §7, §8

SMILES | EC50 (human CYP11B1) | EC50 (human CYP11B2)
Cn1nccc1-c1cncc(N2C(=O)c3ccc(Cl)cc3C2(C)C)c1 [Example 418, 5-Chloro-3,3-dimethyl-2-[5-(2-methyl-2H-pyrazol-3-yl)-pyridin-3-yl]-2,3-dihydro-isoindol-1-one] | 62 nM | 4 nM
O=C1c2ccc(Cl)cc2CCN1c1cncc(COCC2CC2)c1 [Example 198, 6-Chloro-2-(5-cyclopropylmethoxymethyl-pyridin-3-yl)-3,4-dihydro-2H-isoquinolin-1-one] | 990 nM | 2450 nM
O=C1c2ccc(Cl)cc2CCN1c1cncc(CO)c1 [Example 3, 6-Chloro-2-(5-hydroxymethyl-pyridin-3-yl)-3,4-dihydro-2H-isoquinolin-1-one] | 3720 nM | 96.5 nM
CCOC(=O)c1nccn1Cc1cncc(N2CCc3cc(Cl)ccc3C2=O)c1 [Example 162, 1-[5-(6-Chloro-1-oxo-3,4-dihydro-1H-isoquinolin-2-yl)-pyridin-3-ylmethyl]-1H-imidazole-2-carboxylic acid ethyl ester] | 2000 nM | 187 nM
O=C1c2ccc(Cl)cc2CCN1c1cncc(Cc2ccc(Cl)c(Cl)c2)c1 [Example 216, 6-Chloro-2-[5-(3,4-dichloro-benzyl)-pyridin-3-yl]-3,4-dihydro-2H-isoquinolin-1-one] | 364 nM | 38.1 nM
Cn1ccc2cncc(N3CCc4cc(Cl)ccc4C3=O)c21 [Example 65, 6-Chloro-2-(1-methyl-1H-pyrrolo[3,2-c]pyridin-7-yl)-3,4-dihydro-2H-isoquinolin-1-one] | 2350 nM | 97.3 nM
CCc1nc(C)cn1Cc1cncc(N2CCc3cc(Cl)ccc3C2=O)c1 [Example 143, 6-Chloro-2-[5-(2-ethyl-4-methyl-imidazol-1-ylmethyl)-pyridin-3-yl]-3,4-dihydro-2H-isoquinolin-1-one] | 4450 nM | 258 nM
CC[C@H]1c2cc(Cl)ccc2C(=O)N1c1cncc2c1CCC[C@H]2NC(C)=O (single isomer, unassigned) [Example 357, N-[(R or S)-4-((S or R)-5-Chloro-3-ethyl-1-oxo-1,3-dihydro-isoindol-2-yl)-5,6,7,8-tetrahydro-isoquinolin-8-yl]-acetamide] | 3220 nM | 98.2 nM
C[S+]([O-])c1cncc(N2CCc3cc(Cl)ccc3C2=O)c1 (centres unmarked) [Example 279, 6-Chloro-2-(5-methanesulfinyl-pyridin-3-yl)-3,4-dihydro-2H-isoquinolin-1-one] | 11100 nM | 600 nM
O=C1c2ccc(Cl)cc2CCN1c1cncc(Cc2cc(F)ccc2F)c1 [Example 212, 6-Chloro-2-[5-(2,5-difluoro-benzyl)-pyridin-3-yl]-3,4-dihydro-2H-isoquinolin-1-one] | 81.6 nM | 8.4 nM
CC(O)c1cncc(N2C(=O)c3ccc(Cl)cc3C2C)c1 (centres unmarked) [Example 122, 5-Chloro-2-[5-(1-hydroxy-ethyl)-pyridin-3-yl]-3-methyl-2,3-dihydro-isoindol-1-one] | 180 nM | 42.3 nM
CC1(C)c2cc(Cl)ccc2C(=O)N1c1cncc(CO)c1 [Example 133, 5-Chloro-2-(5-hydroxymethyl-pyridin-3-yl)-3,3-dimethyl-2,3-dihydro-isoindol-1-one] | 1370 nM | 98.6 nM
Cc1cn[nH]c1-c1cncc(N2CCc3cc(Cl)ccc3C2=O)c1 [Example 420, 6-Chloro-2-[5-(4-methyl-2H-pyrazol-3-yl)-pyridin-3-yl]-3,4-dihydro-2H-isoquinolin-1-one] | 281 nM | 27.4 nM
O=C1c2ccc(Cl)cc2CN1c1cncc2c1CCC[C@@H]2O [Example 340, 5-Chloro-2-((S)-8-hydroxy-5,6,7,8-tetrahydro-isoquinolin-4-yl)-2,3-dihydro-isoindol-1-one] | 14200 nM | 88.3 nM
CC(=O)N[C@H]1CCCc2c1cncc2N1C(=O)c2ccc(Cl)cc2[C@@H]1C1CC1 (single isomer, unassigned) [Example 371, N-[(S or R)-4-((S or R)-5-Chloro-3-cyclopropyl-1-oxo-1,3-dihydro-isoindol-2-yl)-5,6,7,8-tetrahydro-isoquinolin-8-yl]-acetamide] | – | 4260 nM
CS(=O)(=O)NC1CCCc2c1cncc2N1CCc2cc(Cl)ccc2C1=O (single isomer, unassigned) [Example 324, N-((S or R)-6-Chloro-1-oxo-3,4,5′,6′,7′,8′-hexahydro-1H-[2,4′]biisoquinolinyl-8′-yl)-methanesulfonamide] | – | 2810 nM
O=C1c2ccc(Cl)cc2CCN1c1cncc(-c2ccc(Cl)c(Cl)c2)c1 [Example 241, 6-Chloro-2-[5-(3,4-dichloro-phenyl)-pyridin-3-yl]-3,4-dihydro-2H-isoquinolin-1-one] | – | 582 nM
CC(=O)NC1CCc2c1cncc2N1Cc2cc(Cl)ccc2C1=O (single isomer, unassigned; (-)) [Example 318, (−)-N—[(S or R)-4-(5-Chloro-1-oxo-1,3-dihydro-isoindol-2-yl)-6,7-dihydro-5H-[2]pyrindin-7-yl]-acetamide] | – | > 30000 nM
CC(=O)N[C@H]1CCCc2c1cncc2N1C(=O)c2ccc(Cl)cc2[C@H]1C1CC1 (single isomer, unassigned) [Example 373, N-[(S or R)-4-((R or S)-5-Chloro-3-cyclopropyl-1-oxo-1,3-dihydro-isoindol-2-yl)-5,6,7,8-tetrahydro-isoquinolin-8-yl]-acetamide] | – | > 30000 nM
CC[C@H]1c2cc(Cl)ccc2C(=O)N1c1cncc2c1CC[C@@H]2NS(C)(=O)=O (single isomer, unassigned) [Example 370, N-[(S or R)-4-((S or R)-5-Chloro-3-ethyl-1-oxo-1,3-dihydro-isoindol-2-yl)-6,7-dihydro-5H-[2]pyrindin-7-yl]-methanesulfonamide] | – | 195 nM
CS(=O)(=O)NC1CCc2c1cncc2N1Cc2cc(Cl)ccc2C1=O (single isomer, unassigned) [Example 335, N-[(S or R)-4-(5-Chloro-1-oxo-1,3-dihydro-isoindol-2-yl)-6,7-dihydro-5H-[2]pyrindin-7-yl]-methanesulfonamide] | – | 13800 nM
CC1c2ccc(Cl)cc2C(=O)N1c1cccnc1 (centres unmarked) [Example 119, 6-Chloro-3-methyl-2-pyridin-3-yl-2,3-dihydro-isoindol-1-one] | – | 722 nM
O=C(Nc1cncc(N2CCc3cc(Cl)ccc3C2=O)c1)C1CC1 [Example 248, Cyclopropanecarboxylic acid [5-(6-chloro-1-oxo-3,4-dihydro-1H-isoquinolin-2-yl)-pyridin-3-yl]-amide] | 2650 nM | –
COC(OC)c1ccncc1N1CCc2cc(Cl)ccc2C1=O [Example 61, 6-Chloro-2-(4-dimethoxymethyl-pyridin-3-yl)-3,4-dihydro-2H-isoquinolin-1-one] | – | 2830 nM
